Laboratory results from patent US4883863A, “Tripeptide derivatives and antiplasmin agents containing the same” (Nitto Boseki Co., Ltd., priority 1987, dated 1989).
Structures can show the parent of a compound that is named as a salt. Where a SMILES comes first, the peptide text is derived from it. [ ]: non-standard residue; d: D form. The star is where a group is joined. Tos = Cc1ccc(S(=O)(=O)*)cc1; Moc = COC(=O)*; For = O=C*

Columns and labels:
Type in all cases: biochemical
plasmin [1] = molecular target: T1, plasmin (Homo sapiens, UniProt P00747); assay: Inhibitory activity on fibrinogen decomposition by plasmin (natural substrate); parameters: purchased Sankyo (Color Test α2 -D1 Kit); conditions: Table 4; 2% fibrinogen, pH 7.2, 37° C.
Description: The determination was carried out by a modification of the method described in Takaaki Aoyagi. "Koso Sogai Busshitsu (Enzyme Inhibiting Substances)" Kyoritsu Zensho, p. 12.
To 0.3 ml of phosphate buffer (pH 7.2) was added 0.1 ml of an aqueous solution of each inhibitor, and the resulting solution was heated at 37° C. for 5 minutes. Then, 0.1 ml of a plasmin solution (12 CU/ml) was added, followed by incubation for 5 minutes. Subsequently, 0.7 ml of phosphate buffer (pH 7.2) containing 2% fibrinogen was added, followed by incubation for 15 minutes. After completion of the reaction, a 12% aqueous hydrochloride acid solution (1.5 ml) containing 6% trichloroacetic acid was added, and the resulting mixture was lightly shaken, allowed to stand at room temperature for 15 minutes, and then centrifuged (3000 r.p.m., 10 minutes). The absorbance of the supernatant was measured at 280 nm, and a concentration of the inhibitor at which the absorbance was the same as when the amount of the enzyme added was reduced by half was determined as IC50.
Target sequence in this assay (P00747 581-810 limits assumed, species assumed): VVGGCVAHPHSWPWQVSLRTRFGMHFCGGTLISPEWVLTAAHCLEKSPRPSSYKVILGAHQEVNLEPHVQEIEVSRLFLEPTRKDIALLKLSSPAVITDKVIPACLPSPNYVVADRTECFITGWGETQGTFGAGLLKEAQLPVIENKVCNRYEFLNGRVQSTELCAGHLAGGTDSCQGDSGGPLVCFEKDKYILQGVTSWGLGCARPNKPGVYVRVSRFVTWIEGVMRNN
Target sequence in this assay (P00747 97-580 partner limits assumed, species assumed): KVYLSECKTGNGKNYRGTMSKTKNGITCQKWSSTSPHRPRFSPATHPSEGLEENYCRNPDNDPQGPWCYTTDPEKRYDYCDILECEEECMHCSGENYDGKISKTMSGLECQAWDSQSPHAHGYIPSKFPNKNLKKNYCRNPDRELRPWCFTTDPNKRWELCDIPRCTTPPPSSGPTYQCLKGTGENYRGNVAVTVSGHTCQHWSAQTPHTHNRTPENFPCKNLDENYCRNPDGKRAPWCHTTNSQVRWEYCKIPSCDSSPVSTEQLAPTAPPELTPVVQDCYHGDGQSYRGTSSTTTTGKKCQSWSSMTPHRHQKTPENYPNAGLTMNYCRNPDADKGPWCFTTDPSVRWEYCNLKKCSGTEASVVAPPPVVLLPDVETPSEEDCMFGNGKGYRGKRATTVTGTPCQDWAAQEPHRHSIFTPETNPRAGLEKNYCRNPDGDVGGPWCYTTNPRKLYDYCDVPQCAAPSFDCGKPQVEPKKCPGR

human Factor Xa = molecular target: T2, human Factor Xa (Homo sapiens, UniProt P00742); assay: Factor Xa-inhibiting activity, synthetic substrate PS-2000; conditions: Table 4; PS-2000, pH 8.5, 37° C.
T2 construct: purchased Boehringer Manheim Co., Ltd
T2 sequence (P00742 235-488 limits assumed): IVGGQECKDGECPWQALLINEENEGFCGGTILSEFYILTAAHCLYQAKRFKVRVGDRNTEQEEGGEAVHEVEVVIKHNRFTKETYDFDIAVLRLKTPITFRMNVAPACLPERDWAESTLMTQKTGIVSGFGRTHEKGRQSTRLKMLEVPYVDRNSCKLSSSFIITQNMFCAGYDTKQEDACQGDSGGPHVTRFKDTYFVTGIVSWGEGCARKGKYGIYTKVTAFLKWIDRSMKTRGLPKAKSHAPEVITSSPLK
T2 sequence (P00742 41-179 partner limits assumed): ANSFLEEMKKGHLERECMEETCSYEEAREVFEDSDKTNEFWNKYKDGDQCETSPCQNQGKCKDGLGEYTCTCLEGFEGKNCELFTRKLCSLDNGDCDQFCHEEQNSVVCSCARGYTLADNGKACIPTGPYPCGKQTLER
From the text: (§1) Synthetic substrates used for testing the inhibitory activity of the inhibitors on decomposition of substrates by the enzymes were as follows. For plasmin, PS-994 (H--D--Lys(Tos)--Phe--Lys--CHA·2HCl, mfd. by NITTO BOSEKI Co., Ltd.) was used; for thrombin and trypsin, PS-915 (H--D--Phe--Pro--Arg--CHA·2HCl, mfd. by NITTO BOSEKI Co., Ltd.); for Factor Xa, PS-2000 (Z--D--Lys--(HCO)--Gly--Arg--CHA·HCl, mfd. by NITTO BOSEKI Co., Ltd.); and for kallikrein, S-2302 (H--D--Pro--Phe--Arg--pNA, mfd., by Kabi Co., Ltd.).
(§2) As plasmin, standard plasmin of Sankyo Color Test α2 -D1 Kit was used in an amount of 0.3CU/ml. As thrombin, that of Sankyo Color Test ATIII kit was used in an amount of 1.2 NIHU/ml. As trypsin, that of cord 3703 of Worthington was used in an amount of 2 μg/ml. As human Factor Xa, that of Boehringer Manheim Co., Ltd. was used in an amount of 0.25 U/ml. As human plasma kallikrein, that of Kabi Co., Ltd. was used in an amount of 0.12 U/ml. As terminating color reagents, those for Sankyo Color Test Kit were used. The reactions were carried out at 37° C. unless otherwise specified.
Each of aqueous solutions (1 ml) of the inhibitors which solutions were various in their respective concentrations was added to 0.3 ml of a buffer solution (a 150 mM aqueous sodium chloride solution containing 50 mM Tris, pH 8.5 ), and the resulting solution was heated for 5 minutes. Then, 0.1 ml of a Factor Xa solution (a 150 mM aqueous sodium chloride solution containing 50 mM Tris and 20 mM calcium chloride, pH 8.5) was added, followed by incubation for 5 minutes. Subsequently, a 5% polyvinyl pyrrobidone solution (0.1 ml) containing 10 mM PS-2000 was added, followed by incubation for 5 min. Thereafter, 2 ml of terminating color reagent was added. After standing for 10 minutes, absorbance at 700 nm was measured and IC50 was determined in the manner described above.

trypsin = molecular target: T3, trypsin (Bos taurus, UniProt P00760); assay: Trypsin-inhibiting activity, synthetic substrate PS-915; conditions: Table 4; PS-915, pH 8.0, 37° C.
T3 construct: purchased Worthington 3703
T3 sequence (P00760 24-246): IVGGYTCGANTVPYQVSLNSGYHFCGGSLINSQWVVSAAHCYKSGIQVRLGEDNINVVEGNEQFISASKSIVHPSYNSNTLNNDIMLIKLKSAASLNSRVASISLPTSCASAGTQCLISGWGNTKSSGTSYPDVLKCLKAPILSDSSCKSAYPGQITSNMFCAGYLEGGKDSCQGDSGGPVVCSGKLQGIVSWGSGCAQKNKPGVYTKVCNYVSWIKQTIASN
From the text: as §1, §2
Each of aqueous solutions (0.1 ml) of the inhibitors which solutions were various in their respective concentrations was added to 0.5 ml of a buffer solution (a 150 mM aqueous sodium chloride solution containing 150 mM Tris, pH 8.0), and the resulting solution was heated for 5 minutes. Then, 0.1 ml of a trypsin solution was added, followed by incubation for 5 minutes. Subsequently, 0.1 ml of a PS-915 solution (10 mM) was added, followed by incubation for 5 minutes. Thereafter, 2 ml of terminating color reagent [containing […] of soybean trypsin inhibitor (No. T-9003, available from Sigma Chemical Co.)] was added. After standing for 10 minutes, absorbance at 700 nm was measured and IC50 was determined in the manner described above.

plasmin [2] = molecular target: T1, plasmin; assay: Inhibitory activity on fibrin decomposition by plasmin (natural substrate); parameters: Standard human serum (0.1 ml); from tissue; conditions: Table 4; concentration doubling time for complete dissolution, 25° C.
Description: The determination was carried out by the method of Okamoto et al. (see Keio Journal of Medicine, vol. 11, p. 105 (1962).
Standard human serum (0.1 ml), 0.4 ml of each of 1/20 M potassium phosphate sodium physiological salt buffer solutions (pH 7.4) containing various concentrations of each inhibitor, and 0.1 ml of a solution of streptokinase in physiological saline (1000 U/ml) were stirred and then cooled at 0° C. for 10 minutes. Thereto was added 0.05 ml of a solution of thrombin in physiological saline (100 NIHU/ml, mfd. by Parke Davis Co. Ltd.) at 0° C. After standing for 1 minute, 0.3 ml of a 0.33% solution of bovine fibrinogen (F-4753, available from Sigma Chemical Co.) in physiological saline was added, and the resulting mixture was allowed to stand at 25° C. The solubility was measured every minute by the standard of judgement of Nakamura (see Allergy, vol. 5, p. 1 (1956)) and the time required for complete dissolution was determined. A concentration of the inhibitor at which said time is twice that required in the absence of the inhibitor was determined as IC50.
Target sequence in this assay (P00747 581-810 limits assumed): as the sequence (P00747 581-810 limits assumed, species assumed) above
Target sequence in this assay (P00747 97-580 partner limits assumed): as the sequence (P00747 97-580 partner limits assumed, species assumed) above

Row | IC50 (plasmin [1]) [µM] | IC50 (human Factor Xa) [µM] | IC50 (trypsin) [µM] | IC50 (plasmin [2]) [µM] | SMILES
1 | 0.19 | 85 | 7.8 | 0.24 | Cc1ccc(S(=O)(=O)NCCCC[C@@H](NC=O)C(=O)N[C@@H](Cc2ccccc2)C(=O)N[C@H](C=O)CCCCN)cc1 [Compound 4, N-α-Formyl-N-ε-(p-tosyl)-D-lysyl-L-phenylalanyl-L-lysinal hydrochloride] (For-[dK](Tos)-Phe-Lys-aldehyde)
2 | 0.13 | 22 | 2.5 | 0.23 | COC(=O)N[C@H](CCCCNS(=O)(=O)c1ccc(C)cc1)C(=O)N[C@@H](Cc1ccccc1)C(=O)N[C@H](C=O)CCCCN [Compound 2, N-α-Methoxycarbonyl-N-ε-(p-tosyl)-D-lysyl-L-phenylalanyl-L-lysinal hydrochloride] (Moc-[dK](Tos)-Phe-Lys-aldehyde)
